Consider 21 compounds from patent publication US11673910B2, “Macrolides with modified desosamine sugars and uses thereof” (Zikani Therapeutics, Inc., priority 2017, dated 2023).

In general, MIC refers to the least concentration at which growth counts as inhibited. Low readings indicate inhibition by little substance, high ones a need for much substance.

Converted amounts (≈) assume the structure as drawn. A value given as a limit tells only on which side of the number the result lay.

Format in all cases: cell-based
Assay [1] relates to P. aeruginosa strain MP-3. Briefly: Broth dilution MIC determination (CLSI) against P. aeruginosa strain MP-3. The conditions noted are these: Pseudomonas aeruginosa, MP3. In outline:
(§1)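 Macrolides were serially diluted in broth according to CLSI standards and the minimum inhibitory concentration was read per organism; each MIC was then assigned to one of three bands (+++ ≤4, ++ ≥8 to <32, + ≥32 mg/L).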
In general terms: Dilution methods test growth across graded concentrations, often in twofold steps.

Assay [2] relates to A. baumannii strain MP-15. Briefly: Broth dilution MIC determination (CLSI) against A. baumannii strain MP-15. The conditions noted are these: Acinetobacter baumannii, MP15. The gist of the method:
as §1

The next assay concerns E. coli strain MP-4. In words: Broth dilution MIC determination (CLSI) against E. coli strain MP-4. The conditions noted are these: Escherichia coli, MP4. In outline: as §1
For the next assay, the system named is S. aureus strain MP-12. Briefly: Broth dilution MIC determination (CLSI) against S. aureus strain MP-12. The conditions noted are these: Staphylococcus aureus, MP12, strain MP-12. In outline:
as §1

Assay [3] deals with K. pneumoniae strain MP-548. Briefly: Broth dilution MIC determination (CLSI) against K. pneumoniae strain MP-548. To be noted: Klebsiella pneumoniae, MP548. In outline: as §1

In the case of `CC[C@H]1OC(=O)C(C)C(=O)[C@H](C)[C@@H](OC2OC(CCNC3CC3)CC(N(C)C)C2O)[C@](C)(OC)C[C@@H](C)CN[C@H](C)[C@H]2NC(=O)O[C@@]21C` (stereo partly drawn) [Compound 187, 3-Descladinosyl-3-oxo-6-O-methyl-N9a-desmethyl-11,12-dideoxy-12,11-(oxycarbonylimino)-5′-desmethyl-5′-(2-(aminocyclopropyl)ethyl) Azithromycin], the minimum inhibitory concentration (MIC) in assay [1] is at least 32 µg/mL; in assay [2], at least 32 µg/mL; with E. coli strain MP-4 it was at most 4 µg/mL; against S. aureus strain MP-12, at least 32 µg/mL; in assay [3], at most 4 µg/mL.

In the case of `CC[C@H]1OC(=O)C(C)C(=O)[C@H](C)[C@@H](OC2OC(C(O)CNC3CC3)CC(N(C)C)C2O)[C@](C)(OC)C[C@@H](C)CN[C@H](C)[C@H]2NC(=O)O[C@@]21C` (stereo partly drawn) [Compound 188, 3-Descladinosyl-3-oxo-6-O-methyl-8-oxo-N9a-desmethyl-11,12-dideoxy-12,11-(oxycarbonylimino)-6′-hydroxy-6′-cyclopropylaminomethyl Azithromycin], the MIC (in assay [1]; in assay [2]; against E. coli strain MP-4; against S. aureus strain MP-12; in assay [3]) was at least 32 µg/mL throughout.

Regarding `CC[C@H]1OC(=O)C(C)C(=O)[C@H](C)[C@@H](OC2OC(CNC3CC3)CC(N(C)C)C2O)[C@](C)(OC)C[C@@H](C)C(=O)N[C@H](C)[C@H]2NC(=O)O[C@@]21C` (stereo partly drawn) [Compound 189, 3-Descladinosyl-3-oxo-6-O-methyl-8-oxo-N9a-desmethyl-11,12-dideoxy-12,11-(oxycarbonylimino)-6′-cyclopropylamino Azithromycin], the MIC (in assay [1]; in assay [2]; against E. coli strain MP-4; with S. aureus strain MP-12; in assay [3]) was at least 32 µg/mL each time.

For the compound `CC[C@H]1OC(=O)C(C)(C)C(=O)[C@H](C)[C@@H](O[C@@H]2O[C@H](CNC3CC3)CC(N(C)C)[C@H]2O)[C@](C)(OC)C[C@@H](C)CN(C)[C@H](C)[C@H]2NC(=O)O[C@@]21C` (stereo partly drawn) [Compound 190, 2-Methyl-3-descladinosyl-3-oxo-6-O-methyl-N9a-desmethyl-11,12-dideoxy-12,11-(oxycarbonylimino)-6′-cylcopropylamino Azithromycin], the minimum inhibitory concentration (MIC) (in assay [1]; in assay [2]; against E. coli strain MP-4; with S. aureus strain MP-12; in assay [3]) was at least 32 µg/mL throughout.

For `CC[C@H]1OC(=O)C(C)C(=O)[C@H](C)[C@@H](O[C@@H]2O[C@H](CNC3CC3)CC(N(C)C)[C@H]2O)[C@](C)(OC)C[C@@H](C)CN(C)[C@H](C)[C@H]2N(C)C(=O)O[C@]12C` (stereo partly drawn) [Compound 191], the MIC in assay [1] was at least 32 µg/mL; in assay [2], at least 32 µg/mL; in the assay with E. coli strain MP-4, at most 4 µg/mL; with S. aureus strain MP-12, at least 32 µg/mL; in assay [3] it was 8 to 32 µg/mL (≈ 11.5 to 45.9 µM).

`CC[C@H]1OC(=O)C(C)(C)C(=O)[C@H](C)[C@@H](O[C@@H]2O[C@H](CNC3CC3)CC(N(C)C)[C@H]2O)[C@](C)(OC)C[C@@H](C)CN[C@H](C)[C@H]2NC(=O)O[C@@]21C` (stereo partly drawn) [Compound 192, 2-Methyl-3-descladinosyl-3-oxo-6-O-methy 1-N9a-desmethyl-11,12-dideoxy-12,11-(oxycarbonylimino)-6′-cylcopropylamino Azithromycin]: the MIC in assay [1] is at least 32 µg/mL; in assay [2], at least 32 µg/mL; in the assay with E. coli strain MP-4, at most 4 µg/mL; against S. aureus strain MP-12 it was at least 32 µg/mL; in assay [3], at least 32 µg/mL.

`CC[C@H]1OC(=O)C(C)C(=O)[C@H](C)[C@@H](O[C@@H]2O[C@H](C(=O)O)CC(N(C)C)[C@H]2O)[C@](C)(OC)C[C@@H](C)CN[C@H](C)[C@H]2NC(=O)O[C@@]21C` (stereo partly drawn) [Compound 193]: the MIC (in assay [1]; in assay [2]; in the assay with E. coli strain MP-4; with S. aureus strain MP-12; in assay [3]) was at least 32 µg/mL each time.

For `CC[C@H]1OC(=O)[C@]2(C)CCO[C@](C)(C[C@@H](C)CN[C@H](C)[C@H]3NC(=O)O[C@@]31C)[C@H](O[C@@H]1O[C@H](CO)C[C@H](N(C)C)[C@H]1O)[C@@H](C)C2=O` [Compound 194], the MIC (in assay [1]; in assay [2]; against E. coli strain MP-4; in the assay on S. aureus strain MP-12; in assay [3]) was at least 32 µg/mL in each case.

Regarding `CC[C@H]1OC(=O)[C@@]2(C)CCO[C@](C)(C[C@@H](C)CN[C@H](C)[C@H]3NC(=O)O[C@@]31C)[C@H](O[C@@H]1O[C@H](CO)C[C@H](N(C)C)[C@H]1O)[C@@H](C)C2=O` [Compound 195], the MIC (in assay [1]; in assay [2]; with E. coli strain MP-4; with S. aureus strain MP-12; in assay [3]) was at least 32 µg/mL throughout.

Turning to `CC[C@H]1OC(=O)[C@]2(C)CCO[C@](C)(C[C@@H](C)CN[C@H](C)[C@H]3NC(=O)O[C@@]31C)[C@H](O[C@@H]1O[C@H](CNCC3CC3)C[C@H](N(C)C)[C@H]1O)[C@@H](C)C2=O` [Compound 196], the MIC in assay [1] is at least 32 µg/mL; in assay [2], at least 32 µg/mL; against E. coli strain MP-4, 8 to 32 µg/mL (≈ 11.5 to 46 µM); against S. aureus strain MP-12 it was at least 32 µg/mL; in assay [3] it was at least 32 µg/mL.

`CC[C@H]1OC(=O)[C@@]2(C)CCO[C@](C)(C[C@@H](C)CN[C@H](C)[C@H]3NC(=O)O[C@@]31C)[C@H](O[C@@H]1O[C@H](CNCC3CC3)C[C@H](N(C)C)[C@H]1O)[C@@H](C)C2=O` [Compound 197]: the MIC (in assay [1]; in assay [2]; in the assay with E. coli strain MP-4; with S. aureus strain MP-12; in assay [3]) was at least 32 µg/mL in each case.

`CC[C@H]1OC(=O)[C@]2(C)CCO[C@](C)(C[C@@H](C)CN[C@H](C)[C@H]3NC(=O)O[C@@]31C)[C@H](O[C@@H]1O[C@H](CN3CCCCC3)C[C@H](N(C)C)[C@H]1O)[C@@H](C)C2=O` [Compound 198]: the MIC in assay [1] is at least 32 µg/mL; in assay [2], at least 32 µg/mL; in the assay on E. coli strain MP-4, at most 4 µg/mL; against S. aureus strain MP-12 it was 8 to 32 µg/mL (≈ 11.3 to 45.1 µM); in assay [3], 8 to 32 µg/mL (≈ 11.3 to 45.1 µM).

Turning to `CC[C@H]1OC(=O)[C@@]2(C)CCO[C@](C)(C[C@@H](C)CN[C@H](C)[C@H]3NC(=O)O[C@@]31C)[C@H](O[C@@H]1O[C@H](CN3CCCCC3)C[C@H](N(C)C)[C@H]1O)[C@@H](C)C2=O` [Compound 199], the MIC (in assay [1]; in assay [2]; in the assay with E. coli strain MP-4; against S. aureus strain MP-12; in assay [3]) was at least 32 µg/mL throughout.

Consider `CC[C@H]1OC(=O)[C@]2(C)CCO[C@](C)(C[C@@H](C)CN[C@H](C)[C@H]3NC(=O)O[C@@]31C)[C@H](O[C@@H]1O[C@H](CNCc3cccnc3)C[C@H](N(C)C)[C@H]1O)[C@@H](C)C2=O` [Compound 200], for which the minimal inhibitory concentration (MIC) was at least 32 µg/mL in assay [1]; at least 32 µg/mL in assay [2]; 8 to 32 µg/mL (≈ 10.9 to 43.7 µM) with E. coli strain MP-4; 8 to 32 µg/mL (≈ 10.9 to 43.7 µM) in the assay on S. aureus strain MP-12; at least 32 µg/mL in assay [3].

Turning to `CC[C@H]1OC(=O)[C@@]2(C)CCO[C@](C)(C[C@@H](C)CN[C@H](C)[C@H]3NC(=O)O[C@@]31C)[C@H](O[C@@H]1O[C@H](CNCc3cccnc3)C[C@H](N(C)C)[C@H]1O)[C@@H](C)C2=O` [Compound 201], the MIC (in assay [1]; in assay [2]; with E. coli strain MP-4; in the assay on S. aureus strain MP-12; in assay [3]) was at least 32 µg/mL throughout.

For `CC[C@H]1OC(=O)[C@@]2(C)CCO[C@](C)(C[C@@H](C)CN[C@H](C)[C@H]3NC(=O)O[C@@]31C)[C@H](O[C@@H]1O[C@H](CNC3CC3)C[C@H](N(C)C)[C@H]1O)[C@@H](C)C2=O` [Compound 202], the MIC was at least 32 µg/mL in assay [1]; 8 to 32 µg/mL (≈ 11.7 to 47 µM) in assay [2]; at most 4 µg/mL in the assay on E. coli strain MP-4; at most 4 µg/mL in the assay with S. aureus strain MP-12; at most 4 µg/mL in assay [3].

`CC[C@H]1OC(=O)[C@@]2(C)CCO[C@](C)(C[C@@H](C)CN[C@H](C)[C@H]3NC(=O)O[C@@]31C)[C@H](O[C@@H]1O[C@H](CNC34CC(C3)C4)C[C@H](N(C)C)[C@H]1O)[C@@H](C)C2=O` [Compound 204]: the MIC in assay [1] is at least 32 µg/mL; in assay [2], 8 to 32 µg/mL (≈ 11.3 to 45.3 µM); in the assay on E. coli strain MP-4, at most 4 µg/mL; against S. aureus strain MP-12 it was at most 4 µg/mL; in assay [3], at most 4 µg/mL.

`CC[C@H]1OC(=O)[C@@]2(C)CCOC(C)(C[C@@H](C)CN[C@H](C)[C@H]3NC(=O)O[C@@]31C)[C@H](O[C@@H]1O[C@H](CNCC(F)(F)F)C[C@H](N(C)C)[C@H]1O)[C@@H](C)C2=O` [Compound 206]: the MIC in assay [1] is at least 32 µg/mL; in assay [2], at least 32 µg/mL; against E. coli strain MP-4 it was at most 4 µg/mL; against S. aureus strain MP-12, at most 4 µg/mL; in assay [3], 8 to 32 µg/mL (≈ 11.1 to 44.3 µM).

Consider `CC[C@H]1OC(=O)[C@@]2(C)CCOC(C)(C[C@@H](C)CN(C)[C@H](C)[C@H]3NC(=O)O[C@@]31C)[C@H](O[C@@H]1O[C@H](CNC3CC3)C[C@H](N(C)C)[C@H]1O)[C@@H](C)C2=O` [Compound 208], for which the MIC is at least 32 µg/mL in assay [1]; 8 to 32 µg/mL (≈ 11.5 to 46 µM) in assay [2]; at most 4 µg/mL in the assay with E. coli strain MP-4; at most 4 µg/mL with S. aureus strain MP-12; at most 4 µg/mL in assay [3].

With `CC[C@H]1OC(=O)[C@@]2(C)CCOC(C)(C[C@@H](C)CN(C)[C@H](C)[C@H]3NC(=O)O[C@@]31C)[C@H](O[C@@H]1O[C@H](CN(C)C3CC3)C[C@H](N(C)C)[C@H]1O)[C@@H](C)C2=O` [Compound 209], the minimal inhibitory concentration (MIC) in assay [1] is at least 32 µg/mL; in assay [2] it was 8 to 32 µg/mL (≈ 11.3 to 45.1 µM); against E. coli strain MP-4 it was at most 4 µg/mL; against S. aureus strain MP-12, at most 4 µg/mL; in assay [3], at most 4 µg/mL.

With `CC[C@H]1OC(=O)[C@@]2(C)CCOC(C)(C[C@@H](C)CN(C3CC3)[C@H](C)[C@H]3NC(=O)O[C@@]31C)[C@H](O[C@@H]1OC(C)CC(N(C)C)C1O)[C@@H](C)C2=O` (stereo partly drawn) [Compound 210], the minimum inhibitory concentration (MIC) in assay [1] is at least 32 µg/mL; in assay [2] it was at least 32 µg/mL; in the assay with E. coli strain MP-4 it was 8 to 32 µg/mL (≈ 12 to 48.1 µM); in the assay on S. aureus strain MP-12 it was at most 4 µg/mL; in assay [3], at least 32 µg/mL.
